Test results reported in patent publication US8383618B2, “C2-fluoro substituted piperazine linked pyrrolo[2,1-C][1,4] benzodiazepine dimers and a process for the preparation thereof” (Council of Scientific & Industrial Research, priority 2008, dated 2013).

What was measured:
[1] = test system: sixty human tumor cells derived from nine cancer types; test: NCI in vitro anticancer screen (SRB), whole panel; type: cell-based; conditions: human tumor cell lines; 48 h drug exposure, SRB
Procedure: (§1) The above compounds were evaluated for in vitro anticancer activity against sixty human tumor cells derived from nine cancer types (leukemia, non small cell cancer, colon cancer CNS cancer, melanoma, ovarian cancer renal cancer, prostate cancer and breast cancer) as per NCI protocol. For each compound, dose response curves for each cell line were measured at a minimum of five concentrations at 10-fold dilution. A protocol of 48 h continuous drug exposure was used, and a sulforhodamine B (SRB) protein assay was used to estimate cell viability or growth. The concentration causing 50% cell growth inhibition (GI50), total cell growth inhibition (TGI, 0% growth) and 50% cell death (LC-50% growth) compared with the control was calculated.

786-0 = test: NCI in vitro anticancer screen (SRB); type: cell-based, human; conditions: Renal, 48 h exposure
Procedure: as §1

A498 = test: NCI in vitro anticancer screen (SRB); type: cell-based, human; conditions: Renal, 48 h exposure
Procedure: as §1

A549/ATCC = test: NCI in vitro anticancer screen (SRB); type: cell-based, human; conditions: Non-small cell lung, 48 h exposure
Procedure: as §1

ACHN = test: NCI in vitro anticancer screen (SRB); type: cell-based, human; conditions: Renal, 48 h exposure
Procedure: as §1

BT-549 = test: NCI in vitro anticancer screen (SRB); type: cell-based, human; conditions: Breast, 48 h exposure
Procedure: as §1

CAKI-1 = test: NCI in vitro anticancer screen (SRB); type: cell-based, human; conditions: Renal, 48 h exposure
Procedure: as §1

CCRF-CEM = test: NCI in vitro anticancer screen (SRB); type: cell-based, human; conditions: Leukemia, 48 h exposure
Procedure: as §1

COLO 205 = test: NCI in vitro anticancer screen (SRB); type: cell-based, human; conditions: Colon, 48 h exposure
Procedure: as §1

DU-145 = test: NCI in vitro anticancer screen (SRB); type: cell-based, human; conditions: Prostate, 48 h exposure
Procedure: as §1

HCC-2998 = test: NCI in vitro anticancer screen (SRB); type: cell-based, human; conditions: Colon, 48 h exposure
Procedure: as §1

HCT-116 = test: NCI in vitro anticancer screen (SRB); type: cell-based, human; conditions: Colon, 48 h exposure
Procedure: as §1

HL-60(TB) = test: NCI in vitro anticancer screen (SRB); type: cell-based, human; conditions: Leukemia, 48 h exposure
Procedure: as §1

HOP-62 = test: NCI in vitro anticancer screen (SRB); type: cell-based, human; conditions: Non-small cell lung, 48 h exposure
Procedure: as §1

HOP-92 = test: NCI in vitro anticancer screen (SRB); type: cell-based, human; conditions: Non-small cell lung, 48 h exposure
Procedure: as §1

HS 578T = test: NCI in vitro anticancer screen (SRB); type: cell-based, human; conditions: Breast, 48 h exposure
Procedure: as §1

HT29 = test: NCI in vitro anticancer screen (SRB); type: cell-based, human; conditions: Colon, 48 h exposure
Procedure: as §1

IGROV1 = test: NCI in vitro anticancer screen (SRB); type: cell-based, human; conditions: Ovarian, 48 h exposure
Procedure: as §1

K-562 = test: NCI in vitro anticancer screen (SRB); type: cell-based, human; conditions: Leukemia, 48 h exposure
Procedure: as §1

KM12 = test: NCI in vitro anticancer screen (SRB); type: cell-based, human; conditions: Colon, 48 h exposure
Procedure: as §1

LOX IMVI = test: NCI in vitro anticancer screen (SRB); type: cell-based, human; conditions: Melanoma, 48 h exposure
Procedure: as §1

M14 = test: NCI in vitro anticancer screen (SRB); type: cell-based, human; conditions: Melanoma, 48 h exposure
Procedure: as §1

MALME-3M = test: NCI in vitro anticancer screen (SRB); type: cell-based, human; conditions: Melanoma, 48 h exposure
Procedure: as §1

MCF7 = test: NCI in vitro anticancer screen (SRB); type: cell-based, human; conditions: Breast, 48 h exposure
Procedure: as §1

MDA-MB-435 = test: NCI in vitro anticancer screen (SRB); type: cell-based, human; conditions: Breast, 48 h exposure
Procedure: as §1

MOLT-4 = test: NCI in vitro anticancer screen (SRB); type: cell-based, human; conditions: Leukemia, 48 h exposure
Procedure: as §1

NCI-H322M = test: NCI in vitro anticancer screen (SRB); type: cell-based, human; conditions: Non-small cell lung, 48 h exposure
Procedure: as §1

NCI-H460 = test: NCI in vitro anticancer screen (SRB); type: cell-based, human; conditions: Non-small cell lung, 48 h exposure
Procedure: as §1

NCI-H522 = test: NCI in vitro anticancer screen (SRB); type: cell-based, human; conditions: Non-small cell lung, 48 h exposure
Procedure: as §1

OVCAR-3 = test: NCI in vitro anticancer screen (SRB); type: cell-based, human; conditions: Ovarian, 48 h exposure
Procedure: as §1

OVCAR-5 = test: NCI in vitro anticancer screen (SRB); type: cell-based, human; conditions: Ovarian, 48 h exposure
Procedure: as §1

OVCAR-8 = test: NCI in vitro anticancer screen (SRB); type: cell-based, human; conditions: Ovarian, 48 h exposure
Procedure: as §1

PC-3 = test: NCI in vitro anticancer screen (SRB); type: cell-based, human; conditions: Prostate, 48 h exposure
Procedure: as §1

RPMI-8226 = test: NCI in vitro anticancer screen (SRB); type: cell-based, human; conditions: Leukemia, 48 h exposure
Procedure: as §1

RXF 393 = test: NCI in vitro anticancer screen (SRB); type: cell-based, human; conditions: Renal, 48 h exposure
Procedure: as §1

SF-268 = test: NCI in vitro anticancer screen (SRB); type: cell-based, human; conditions: CNS, 48 h exposure
Procedure: as §1

SF-539 = test: NCI in vitro anticancer screen (SRB); type: cell-based, human; conditions: CNS, 48 h exposure
Procedure: as §1

SK-MEL-28 = test: NCI in vitro anticancer screen (SRB); type: cell-based, human; conditions: Melanoma, 48 h exposure
Procedure: as §1

SK-MEL-5 = test: NCI in vitro anticancer screen (SRB); type: cell-based, human; conditions: Melanoma, 48 h exposure
Procedure: as §1

SK-OV-3 = test: NCI in vitro anticancer screen (SRB); type: cell-based, human; conditions: Ovarian, 48 h exposure
Procedure: as §1

SN12C = test: NCI in vitro anticancer screen (SRB); type: cell-based, human; conditions: Renal, 48 h exposure
Procedure: as §1

SNB-19 = test: NCI in vitro anticancer screen (SRB); type: cell-based, human; conditions: CNS, 48 h exposure
Procedure: as §1

SNB-75 = test: NCI in vitro anticancer screen (SRB); type: cell-based, human; conditions: CNS, 48 h exposure
Procedure: as §1

SR = test: NCI in vitro anticancer screen (SRB); type: cell-based, human; conditions: Leukemia, 48 h exposure
Procedure: as §1

SW-620 = test: NCI in vitro anticancer screen (SRB); type: cell-based, human; conditions: Colon, 48 h exposure
Procedure: as §1

T-47D = test: NCI in vitro anticancer screen (SRB); type: cell-based, human; conditions: Breast, 48 h exposure
Procedure: as §1

TK-10 = test: NCI in vitro anticancer screen (SRB); type: cell-based, human; conditions: Renal, 48 h exposure
Procedure: as §1

U251 = test: NCI in vitro anticancer screen (SRB); type: cell-based, human; conditions: CNS, 48 h exposure
Procedure: as §1

UACC-62 = test: NCI in vitro anticancer screen (SRB); type: cell-based, human; conditions: Melanoma, 48 h exposure
Procedure: as §1

calf thymus (CT) DNA = test: Thermal denaturation studies; type: binding; conditions: [PBD]:[DNA] molar ratio 1:5; CT-DNA 100 μM, ligand 20 μM; sodium phosphate buffer pH 7.00
Procedure: The DNA binding affinity of the C2-Fluoro substituted piperazine linked pyrrolo[2,1c][1,4]benzodiazepine dimers were subjected to thermal denaturation studies using calf thymus (CT) DNA (Jones, G. B.; Davey, C. L.; Jenkins, T. C.; Kamal, A.; Kneale, G. G.; Neidle, S.; Webster, G. D.; Thurston, D. E. Anti-cancer Drug Des. 1990, 5, 249. McConnaughie, A. W.; Jenkins, T. C. J. Med. Chem. 1995, 38, 3488). The studies for these compounds (IXa-f) were carried out by DNA/ligand molar ratio is 1:5 the increase in the helix melting temperature (ΔTm) for each compound was examined at 0 h. […] Data for DSB-120 and SJG-136 are included in Table-3 for comparison. The synthetic DC-81 dimer (DSB-120) gives a ΔTm 10.2° C. and SJC-136 gives a […]Tm of 25° C. under identical experimental condition.

COc1cc2c(cc1OCCCN1CCN(CCCOc3cc4c(cc3OC)C(=O)N3CC(F)(F)C[C@H]3C=N4)CC1)N=C[C@@H]1CC(F)(F)CN1C2=O [IXd, 1,1′-{[(bispropane-1,N-diyl)piperazine]dioxy}bis[(11aS)-2-2-difluoro-7-methoxy-1,2,3,11a-tetrahydro-5H-pyrrolo[2,1-c][1,4]benzodiazepine-5-one]]
Log10 GI50 mean graph midpoint (MG_MID) [1]: −5.41 | Log10 LC50 mean graph midpoint (MG_MID) [1]: −4.2 | Log10 TGI mean graph midpoint (MG_MID) [1]: −4.79 | GI50 (786-0): 3.17 µM | GI50 (A498): 2.43 µM | GI50 (A549/ATCC): 7.3 µM | GI50 (ACHN): 5.64 µM | GI50 (BT-549): 3.25 µM | GI50 (CAKI-1): 3.31 µM | GI50 (CCRF-CEM): 0.9 µM | GI50 (COLO 205): 3.09 µM | GI50 (DU-145): 3.63 µM | GI50 (HCC-2998): 5.4 µM | GI50 (HCT-116): 3.59 µM | GI50 (HL-60(TB)): 1.18 µM | GI50 (HOP-62): 3.17 µM | GI50 (HOP-92): 6.14 µM | GI50 (HS 578T): 2.94 µM | GI50 (HT29): 3.61 µM | GI50 (IGROV1): 1.92 µM | GI50 (K-562): 1.7 µM | GI50 (KM12): 4.1 µM | GI50 (LOX IMVI): 1.89 µM | GI50 (M14): 3.25 µM | GI50 (MALME-3M): 2.8 µM | GI50 (MCF7): 2.09 µM | GI50 (MDA-MB-435): 1.95 µM | GI50 (MOLT-4): 2.02 µM | GI50 (NCI-H322M): 1.96 µM | GI50 (NCI-H460): 2.6 µM | GI50 (NCI-H522): 1.14 µM | GI50 (OVCAR-3): 3.55 µM | GI50 (OVCAR-5): 3.83 µM | GI50 (OVCAR-8): 6.3 µM | GI50 (PC-3): 3.06 µM | GI50 (RPMI-8226): 2.2 µM | GI50 (RXF 393): 2.14 µM | GI50 (SF-268): 3.57 µM | GI50 (SF-539): 3 µM | GI50 (SK-MEL-28): 4.28 µM | GI50 (SK-MEL-5): 1.86 µM | GI50 (SK-OV-3): 8.64 µM | GI50 (SN12C): 4.05 µM | GI50 (SNB-19): 4.08 µM | GI50 (SNB-75): 5.52 µM | GI50 (SR): 0.8 µM | GI50 (SW-620): 2.61 µM | GI50 (T-47D): 1.38 µM | GI50 (TK-10): 4.38 µM | GI50 (U251): 3.36 µM | GI50 (UACC-62): 3.05 µM | ΔTm after incubation at 37° C. for 0 h (calf thymus (CT) DNA): 11.0 °C
